This test has as its target Peptidyl-prolyl cis-trans isomerase A (Homo sapiens, UniProt P62937).
Sequence of Peptidyl-prolyl cis-trans isomerase A (P62937 whole entry): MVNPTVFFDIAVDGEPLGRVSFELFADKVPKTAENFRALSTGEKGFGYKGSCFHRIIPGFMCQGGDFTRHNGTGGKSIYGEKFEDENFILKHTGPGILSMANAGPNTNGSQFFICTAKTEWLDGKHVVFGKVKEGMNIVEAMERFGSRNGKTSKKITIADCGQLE
Description: Inhibition of peptidyl-prolyl isomerase activity of Cyclophilin A
In the case of `COc1cccc(F)c1C(=O)NC(=O)NC1c2ccccc2-c2ccccc21`, the IC50 result is “Not Active”.

`O=C(NC(=O)c1c(F)cccc1OCc1ccccc1)NC1c2ccccc2-c2ccccc21`: the IC50 result is listed as “Not Active”.

On to `O=C(NCCc1ccccc1)NC(=O)c1c(O)cccc1O`, for which the IC50 result is “Not Active”. As for `O=C(NC(=O)c1ccccc1)NC1c2ccccc2-c2ccccc21`, the IC50 result was “Not Active”. Then `Cc1ccccc1C(=O)NC(=O)NC1c2ccccc2-c2ccccc21`, with “Not Active”.

Source of the values: ChEMBL document CHEMBL1152440, “Discovering potent small molecule inhibitors of cyclophilin A using de novo drug design approach” (J Med Chem, 2009).
